Assay results published in publication PMC3673541 (2011).

Legend:
[1] = tested on: human telomeric DNA (22mer) (DNA, G4) AGGGTTAGGGTTAGGGTTAGGG; assay: ITC; conditions: Na+ 100 mM; 10 mM cacodylate, 0.5 mM EDTA, pH 6.8; one-site model
[2] = tested on: Oxytricha Nova quadruplex (DNA, G4) GGGGTTTTGGGG; assay: ITC; conditions: Na+ 100 mM; 10 mM cacodylate, 0.5 mM EDTA, pH 6.8

Ka [1]: (2.5±0.2)×10^4 M^−1
Ka [2]: (1.8±0.3)×10^5 M^−1
Structure (SMILES): NC[C@@H]1O[C@H](O[C@H]2[C@@H](O)[C@H](O[C@@H]3[C@@H](O)[C@H](N)C[C@H](N)[C@H]3O[C@H]3O[C@H](CN)[C@@H](O)[C@H](O)[C@H]3N)O[C@@H]2CO)[C@H](N)[C@@H](O)[C@@H]1O
